Measurements taken from publication PMC9002265, “A New Series of Strigolactone Analogs Derived From Cinnamic Acids as Germination Inducers for Root Parasitic Plants” (Frontiers in Plant Science, 2022).

Key:
Orobanche minor seeds = assay: Germination assay, Orobanche minor seeds; assay type: in vivo; conditions: O. minor seeds
Description: Orobanche minor seeds were washed with 70% EtOH, and then sonicated for 4 min in 1% sodium hypochlorite solution containing 0.2% Tween-20. The seeds were then washed 10 times with sterile water and suspended in 0.1% agar solution. The seeds were loaded onto 5-mm glass fiber filter disks (20–70 seeds/disk) and were conditioned at 23°C for 15 days. Each disk was transferred into a 96-well plate. A 30 μl aliquot of test chemical solution was added to the well. For the germination assay, the chemical solutions were prepared by 1,000 times dilution from each acetone stock solution with water (final acetone concentration was 0.1%). GR24 solution (0.1% acetone) and sterile water (0.1% acetone) was used as positive and negative control, respectively. The 96 well plates were incubated for 5 days at 23°C and the number of total seeds and germinated seeds was counted.

[1] = Time course monitoring of degradation in hydroponic culture; assay type: physicochemical; conditions: 1 μM, within 1 week, pH 5.7, LC-MS/MS
Description: t-CASL1, c-CASL1, PPASL, and GR5 were separately added to 15 ml tubes containing hydroponic culture. The final concentration of the test compounds is 1 μM and acetone was adjusted to 0.01% (v/v). These solutions were incubated under the same conditions as branching assay. After incubation for 0, 5, 24 72, or 168 h, 495 μl of hydroponic culture containing test compounds was collected and 5 μl of NAA solution (10 μM) was added as an internal standard. The solution was extracted with ethyl acetate. The ethyl acetate phase was dried up under the nitrogen gas and dissolved in acetonitrile. These samples were subjected to LC–MS/MS analysis equipped with reverse-phase column (CORTECS UPLC Phenyl 1.6 μm, ϕ2.1 × 75 mm; Waters). Each peak area of test chemicals and internal standard was calculated, and the remaining percentage of teste chemicals was calculated. At the same time, the degradation products of test compounds (CA or PPA) were also analyzed. Detailed information about the analytical condition was described in Supplementary Table 1.

AtD14 = molecular target: T1, AtD14 (Arabidopsis thaliana, UniProt Q9SQR3); assay: Hydrolysis assay with recombinant AtD14; assay type: biochemical; conditions: 10 μM substrate, 30°C, 60 min
T1 construct: The cDNA of AtD14 was introduced into pMALHis vector; MBP; His6; made in house; host or cells: E. coli BL21 (DE3)
T1 sequence (Q9SQR3 1-267): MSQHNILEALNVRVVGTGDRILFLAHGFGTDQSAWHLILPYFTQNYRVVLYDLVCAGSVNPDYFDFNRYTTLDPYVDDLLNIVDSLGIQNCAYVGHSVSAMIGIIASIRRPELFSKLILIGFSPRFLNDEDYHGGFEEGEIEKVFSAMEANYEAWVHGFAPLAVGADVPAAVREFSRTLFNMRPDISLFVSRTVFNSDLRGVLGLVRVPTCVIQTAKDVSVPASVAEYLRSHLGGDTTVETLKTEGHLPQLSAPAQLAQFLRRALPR
Description: The cDNA of AtD14 was introduced into pMALHis vector that has both MBP-tag and His6-tag. The vector was transformed in to E. coli BL21 (DE3) and the cell was precultured in LB medium containing 50 μg/ml ampicillin. Overnight cultures (10 ml) were added to fresh LB medium (1 L) containing 50 μg/ml ampicillin and it was cultured at 37°C. After OD600 reached to 0.8, the cultures were cooled at 16°C for 1 h, and then 0.1 mM IPTG was added. The culture was further incubated at 16°C for 20 h. The culture medium was centrifuged at 3,700 g and the pellet was stored at −20°C until use. The pellet was resuspended and sonicated in lysis buffer (50 mM Tris buffer (pH 8.0) containing 500 mM NaCl, 10 mM 2-mercaptoethanol, and 10% glycerol). The supernatant was purified by Ni Sepharose TM 6 Fast Flow (500 μl, Cytiva) After washing with the washing buffer (50 mM Tris buffer (pH 8.0) containing 500 mM NaCl and 20 mM imidazole), The bound protein was eluted with elution buffer (50 mM Tris buffer (pH 8.0) containing 500 mM NaCl and 200 mM imidazole). The eluate was concentrated using VIVASPIN Turbo 15 (Sartorius), and the concentration was adjusted to 5 mg/ml. The purified protein was aliquoted to the appropriate volume, immediately frozen in liquid nitrogen, and stored at −80°C until use.
Hydrolysis assays were carried out at 30°C for 60 min in 100 μl of a reaction buffer containing 0.13 pmol recombinant ShHTL7 or AtD14, 10 μM of substrate in 50 mM Phosphate-Na buffer (pH 7.0) containing 2% acetone. The enzyme reaction was stopped by addition of 100 μl of acetonitrile containing 1-naphtaleneacetic acid (NAA; 0.5 ng/μl) as an internal standard. After centrifuged at 13,000 rpm for 5 min, each sample was subjected to LC–MS/MS analysis equipped with reverse-phase column (CORTECS UPLC Phenyl 1.6 μm, ϕ2.1 × 75 mm; Waters). The concentration of remaining substrate and reaction product was calculated by using NAA as an internal standard. Detailed information about the analytical condition is described in Supplementary Table 1.

[2] = system: Arabidopsis wild type Col-0; assay: Growth promoting assay and root phenotypic analysis; assay type: in vivo; conditions: 1 μM on agar plate
Description: Sterilized seeds of the Arabidopsis wild type Col-0 were put on the plate containing 1% (w/v) agar-solidified 0.5× Murashige and Skoog (MS) medium, 1% sucrose. Test compounds were dissolved in the medium at 1 μM by 10,000 times dilution from each acetone stock (final concentration of acetone was 0.01% (v/v)). To evaluate the growth promoting effect, these seedlings were cultured horizontally at 22°C for 20 days under LED light (105 μmol/m^2/s) with a 16 h light/8 h dark photoperiod. After the cultivation, flesh weight of shoot was measured. For root phenotypic analysis, these seedlings were cultured verticaly at 22°C for 11 days under LED light (105 μmol/m^2/s) with a 16 h light/8 h dark photoperiod. After the cultivation, root length was measured by using ImageJ software and number of lateral roots was counted by using a microscope.

## CC1=CC(OC(=O)/C=C\c2ccccc2)OC1=O (stereo not drawn) [c-CASL1]
Orobanche minor seeds
  germination-inducing activity, times stronger than the corresponding trans isomer: approximately 10 times
[1]
  loss (non-enzymatic degradation) in hydroponic culture medium: ~40%
AtD14
  hydrolysis by AtD14: can hydrolyze
[2]; 11 days
  lateral root density: increased
  primary root length: inhibited
[2]; 20 days
  shoot fresh weight: increase
